Molecular target: T1, IC-GPCR2 (Homo sapiens, UniProt Q8TDV5, S309L)
T1 construct: expressed in transfected cells
T1 sequence (Q8TDV5 1-335 S309L): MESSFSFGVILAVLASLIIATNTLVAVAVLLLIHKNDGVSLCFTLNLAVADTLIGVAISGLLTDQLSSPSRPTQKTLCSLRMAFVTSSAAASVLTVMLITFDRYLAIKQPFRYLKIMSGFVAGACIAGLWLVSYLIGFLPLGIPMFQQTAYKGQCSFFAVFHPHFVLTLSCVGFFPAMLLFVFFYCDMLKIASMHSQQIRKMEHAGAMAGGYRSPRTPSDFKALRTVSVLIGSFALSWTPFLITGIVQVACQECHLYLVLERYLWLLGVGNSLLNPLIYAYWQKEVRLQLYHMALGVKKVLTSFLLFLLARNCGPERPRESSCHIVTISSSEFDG
Assay: Stimulation of cAMP in CHO cells stably expressing IC-GPCR2 (HTRF cAMP assay)
Assay type: cell-based
Conditions: 0.5 h, 30 minutes, IC-GPCR2 stably expressing CHO cells, read-out: Activity at 10 uM (% change in FRET signal from DMSO control)
Procedure, shortened: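 CHO cells stably expressing IC-GPCR2, plated at 17500 cells/well, treated next day for 30 min in Ham's F12 with compounds at 6–8 concentrations from 0.00003 to 10 μM; parental CHO cells also screened. Intracellular cAMP read by HTRF competitive immunoassay (665/620 nm ratio). Activity given as % FRET change from DMSO control.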

SMILES | activation at 10 µM
CC(C)(C)OC(=O)N1CC(c2nc(COc3ccc(-n4cnnn4)cc3)cs2)C1 [Example 101, 3-[4-(4-tetrazol-1-yl-phenoxymethyl)-thiazol-2-yl]-azetidine-1-carboxylic acid tert-butyl ester] | 44%
CC(C)(C)OC(=O)N1CCC(c2nc(COc3ccc(-n4cnnn4)cc3)cs2)C1 (centres unmarked) [Example 102, 3-[4-(4-Tetrazol-1-yl-phenoxymethyl)-thiazol-2-yl]-pyrrolidine-1-carboxylic acid tert-butyl ester] | 49%
CCc1cnc(N2CCC(c3nc(COc4ccc(-n5cnnn5)cc4)cs3)C2)nc1 (centres unmarked) [Example 103, 5-Ethyl-2-{3-[4-(4-tetrazol-1-yl-phenoxymethyl)-thiazol-2-yl]-pyrrolidin-1-yl}-pyrimidine] | 79%
CC(C)(C)OC(=O)N1CCCC(c2nc(COc3ccc(-n4cnnn4)cc3)cs2)C1 (centres unmarked) [Example 104, 3-[4-(4-Tetrazol-1-yl-phenoxymethyl)-thiazol-2-yl]-piperidine-1-carboxylic acid tert-butyl ester] | 76%
CCc1cnc(N2CCCC(c3nc(COc4ccc(-n5cnnn5)cc4)cs3)C2)nc1 (centres unmarked) [Example 105, 5-Ethyl-2-{3-[4-(4-tetrazol-1-yl-phenoxymethyl)-thiazol-2-yl]-piperidin-1-yl}-pyrimidine] | 52%
CC(C)(C)OC(=O)N1CCC(c2nc(COCc3ccc(S(C)(=O)=O)cc3)cs2)CC1 [Example 106, 4-[4-(4-Methanesulfonyl-benzyloxymethyl)-thiazol-2-yl]-piperidine-1-carboxylic acid tert-butyl ester] | 71%
Nc1cnc(N2CCC(c3nc(COc4ccc(-n5cnnn5)cc4)cs3)CC2)nc1 [Example 107, 2-{4-[4-(4-Tetrazol-1-yl-phenoxymethyl)-thiazol-2-yl]-piperidin-1-yl}-pyrimidin-5-ylamine] | 53%
CC(C)(C)OC(=O)N1CCC(c2nc(C(=O)Nc3ccc(-n4cnnn4)cc3)cs2)CC1 [Example 109, 4-[4-(4-Tetrazol-1-yl-phenylcarbamoyl)-thiazol-2-yl]-piperidine-1-carboxylic acid tert-butyl ester] | 38%
CC(C)(C)OC(=O)N1CCC(c2nc(COc3ccc(S(=O)(=O)C(F)(F)F)cc3)cs2)CC1 [Example 110, 4-[4-(4-Trifluoromethanesulfonyl-phenoxymethyl)-thiazol-2-yl]-piperidine-1-carboxylic acid tert-butyl ester] | 51%
CC(C)(C)OC(=O)N1CCC(c2nc(COc3ccc([S+]([O-])C(F)(F)F)cc3)cs2)CC1 (centres unmarked) [Example 111, 4-[4-(4-Trifluoromethanesulfinyl-phenoxymethyl)-thiazol-2-yl]-piperidine-1-carboxylic acid tert-butyl ester] | 68%
CC(C)(C)OC(=O)N1CCC(c2nc(COc3c(F)cc(-n4cnnn4)cc3F)cs2)CC1 [Example 112, 4-[4-(2,6-Difluoro-4-tetrazol-1-yl-phenoxymethyl)-thiazol-2-yl]-piperidine-1-carboxylic acid tert-butyl ester] | 57%
CC(C)(C)OC(=O)N1CCC(c2nc(COc3ccc(-n4cccc4)cc3)cs2)CC1 [Example 113, 4-[4-(4-Pyrrol-1-yl-phenoxymethyl)-thiazol-2-yl]-piperidine-1-carboxylic acid tert-butyl ester] | 60%
CC(C)(C)OC(=O)N1CCC(c2nc(CNc3ccc(-n4cnnn4)cc3)cs2)CC1 [Example 114, 4-{4-[(4-Tetrazol-1-yl-phenylamino)-methyl]-thiazol-2-yl}-piperidine-1-carboxylic acid tert-butyl ester] | 68%
CCc1cnc(N2CCC(c3nc(COc4ccc(-n5cnnn5)c(Cl)c4)cs3)CC2)nc1 [Example 115, 2-{4-[4-(3-Chloro-4-tetrazol-1-yl-phenoxymethyl)-thiazol-2-yl]-piperidin-1-yl}-5-ethyl-pyrimidine] | 67%
CCc1cnc(N2CCC(c3nc(COc4ccc(NC=O)cc4)cs3)CC2)nc1 [Example 116, N-(4-{2-[1-(5-Ethyl-pyrimidin-2-yl)-piperidin-4-yl]-thiazol-4-ylmethoxy}-phenyl)-formamide] | 74%
CCc1cnc(N2CCC(c3nc(COc4ccc(NS(C)(=O)=O)cc4)cs3)CC2)nc1 [Example 117, N-(4-{2-[1-(5-Ethyl-pyrimidin-2-yl)-piperidin-4-yl]-thiazol-4-ylmethoxy}-phenyl)-methanesulfonamide] | 65%

SMILES | activation at 10 µM
Cc1cc(-n2cnnn2)ccc1OCc1csc(C2CCN(C(=O)OC(C)(C)C)CC2)n1 [Example 118, 4-[4-(2-Methyl-4-tetrazol-1-yl-phenoxymethyl)-thiazol-2-yl]-piperidine-1-carboxylic acid tert-butyl ester] | 64%
CCc1cnc(N2CCC(c3nc(COc4ccc(-n5cnnn5)cc4C(F)(F)F)cs3)CC2)nc1 [Example 119, 5-Ethyl-2-{4-[4-(4-tetrazol-1-yl-2-trifluoromethyl-phenoxymethyl)-thiazol-2-yl]-piperidin-1-yl}-pyrimidine] | 53%
CCc1cnc(N2CCC(c3nc(COc4ccc(-n5cnnn5)cc4Cl)cs3)CC2)nc1 [Example 120, 2-{4-[4-(2-Chloro-4-tetrazol-1-yl-phenoxymethyl)-thiazol-2-yl]-piperidin-1-yl}-5-ethyl-pyrimidine] | 73%
CC(C)(C)OC(=O)N1CCC(c2nc(COc3ccc(-n4cnnn4)cc3)co2)CC1 [Example 121, 4-[4-(4-Tetrazol-1-yl-phenoxymethyl)-oxazol-2-yl]-piperidine-1-carboxylic acid tert-butyl ester] | 75%
CC(C)(C)OC(=O)N1CCC(c2nc(COc3ccc(-n4cnnn4)cc3F)co2)CC1 [Example 122, 4-[4-(2-Fluoro-4-tetrazol-1-yl-phenoxymethyl)-oxazol-2-yl]-piperidine-1-carboxylic acid tert-butyl ester] | 76%
CCc1cnc(N2CCC(c3nc(COc4ccc(S(C)(=O)=O)cc4)co3)CC2)nc1 [Example 123, 5-Ethyl-2-{4-[4-(4-methanesulfonyl-phenoxymethyl)-oxazol-2-yl]-piperidin-1-yl}-pyrimidine] | 72%
CCC(=O)c1cc(F)c(OCc2csc(C3CCN(C(=O)OC(C)(C)C)CC3)n2)c(F)c1 [Example 124, 4-[4-(2,6-Difluoro-4-propionyl-phenoxymethyl)-thiazol-2-yl]-piperidine-1-carboxylic acid tert-butyl ester] | 80%
CC(=O)c1ccc(OCc2csc(C3CCN(C(=O)OC(C)(C)C)CC3)n2)c(F)c1 [Example 125, 4-[4-(4-Acetyl-2-fluoro-phenoxymethyl)-thiazol-2-yl]-piperidine-1-carboxylic acid tert-butyl ester] | 78%
CC(C)(C)OC(=O)N1CCC(c2nc(COc3ccc(C#N)cc3F)cs2)CC1 [Example 126, 4-[4-(4-Cyano-2-fluoro-phenoxymethyl)-thiazol-2-yl]-piperidine-1-carboxylic acid tert-butyl ester] | 87%
CC(C)(C)OC(=O)N1CCC(c2nc(COc3ccc(-n4ccnn4)cc3)cs2)CC1 [Example 128, 4-[4-(4-[1,2,3]Triazol-1-yl-phenoxymethyl)-thiazol-2-yl]-piperidine-1-carboxylic acid tert-butyl ester] | 57%
CCOC(=O)c1ccc(OCc2csc(C3CCN(C(=O)OC(C)(C)C)CC3)n2)cc1 [Example 129, 4-[4-(4-Ethoxycarbonyl-phenoxymethyl)-thiazol-2-yl]-piperidine-1-carboxylic acid tert-butyl ester] | 43%
CC(C)(C)OC(=O)Nc1ccc(OCc2csc(C3CCN(C(=O)OC(C)(C)C)CC3)n2)cc1 [Example 130, 4-[4-(4-tert-Butoxycarbonylamino-phenoxymethyl)-thiazol-2-yl]-piperidine-1-carboxylic acid tert-butyl ester] | 53%
CC(C)(C)OC(=O)N1CCC(c2nc(COc3ccc(C(=O)O)cc3)cs2)CC1 [Example 131, 4-[4-(4-Carboxy-phenoxymethyl)-thiazol-2-yl]-piperidine-1-carboxylic acid tert-butyl ester] | 24%
CC(C)(C)OC(=O)N1CCC(c2nc(COc3c(F)cc(S(C)(=O)=O)cc3F)cs2)CC1 [Example 132, 4-[4-(2,6-Difluoro-4-methanesulfonyl-phenoxymethyl)-thiazol-2-yl]-piperidine-1-carboxylic acid tert-butyl ester] | 70%
CC(C)(C)OC(=O)N1CCC(c2nc(COc3ccc(N4CCOCC4)cc3)cs2)CC1 [Example 133, 4-[4-(4-Morpholin-4-yl-phenoxymethyl)-thiazol-2-yl]-piperidine-1-carboxylic acid tert-butyl ester] | 61%
CC(C)(C)OC(=O)N1CCC(c2nc(COc3ccc(SC(F)(F)F)cc3)cs2)CC1 [Example 134, 4-[4-(4-Trifluoromethylsulfanyl-phenoxymethyl)-thiazol-2-yl]-piperidine-1-carboxylic acid tert-butyl ester] | 68%
